Assay results as given in patent US20250222003A1, “PHARMACEUTICAL COMPOSITION FOR TREATING SOLID TUMORS” (Eisai R&D Management Co., Ltd., priority 2021, published 2025).

Test system: patients with a solid tumor
Conditions: human, in vivo
Protocol: This study was carried out as an open-label phase I clinical trial for Compound A. The study was composed of a dose-escalation part to evaluate the safety and tolerability of Compound A, and an expansion part to evaluate the safety, tolerability and preliminary efficacy of Compound A. Each dose in the Examples is expressed as a dose of Compound A in free form.
In the dose-escalation part, the safety and tolerability of Compound A was evaluated at a plurality of doses using a 3+3 design. The starting dose of Compound A was set at 10 mg BID (twice daily).
NCI CTCAE v5.0 was used to evaluate the severity.
This was performed using the analysis subject populations for all safety evaluations (excluding DLT evaluations).
Summary statistics for the safety data (continuous variables: number of cases, mean value, standard deviation, median, minimum and maximum values; categorical variables: number of cases and proportion) were calculated based on the actually administered treatments. […] The following laboratory tests were performed: hematological tests (red blood cell count, hemoglobin, hematocrit value, platelet count, white blood cell count, white blood cell fractions (neutrophils, lymphocytes, monocytes, eosinophils, basophils) coagulation test: INR), blood biochemical tests (liver function tests (AST, ALT, ALP, GGT, total bilirubin, direct bilirubin), renal function test (BUN, creatinine), other tests (blood glucose level, albumin, cholesterol, LDH, total protein, uric acid, amylase, lipase, Na, K, Cl, Ca, phosphorus, Mg, virus test: HBs antigen a, HBs antibody a, HBc antibody a, HCV antibody a, HIV antibody a, HBV DNAb, B-CTXc, 25-hydroxyvitamin Dd), and urine test (pH, protein, sugar, ketone bodies, occult blood, specific gravity)).

- recommended dose: less than 160 mg BID
SMILES: C=CCN1CC(=O)N2[C@@H](Cc3ccc(O)cc3F)C(=O)N(Cc3cccc(N4CC(N5CCN(CC)CC5)C4)n3)C[C@@H]2N1C(=O)NCc1ccccc1 [Compound A, (6S,9aS)—N-benzyl-8-({6-[3-(4-ethylpiperazin-1-yl)azetidin-1-yl]pyridin-2-yl}methyl)-6-(2-fluoro-4-hydroxybenzyl)-4,7-dioxo-2-(prop-2-en-1-yl)hexahydro-2H-pyrazino[2,1-c][1,2,4]triazine-1 (6H)-carboxamide]
- Subjects with Any Treatment-related TEAEs, Any Grade, (%): (89.3) %
- Subjects with Any Treatment-related TEAEs, Grade ≥3, (%): (10.7) %
- TEAE Alanine aminotransferase increased, Any Grade, (%): (14.3) %
- TEAE Amylase increased, Any Grade, (%): (3.6) %
- TEAE Anemia, Any Grade, (%): (10.7) %
- TEAE Aspartate aminotransferase increased, Any Grade, (%): (14.3) %
- TEAE C-telopeptide increased, Any Grade, (%): (3.6) %
- TEAE Decreased appetite, Any Grade, (%): (10.7) %
- TEAE Decreased appetite, Grade ≥3, (%): (7.1) %
- TEAE Diarrhea, Any Grade, (%): (7.1) %
- TEAE Electrocardiogram QT prolonged, Any Grade, (%): (3.6) %
- TEAE Hyperphosphatemia, Any Grade, (%): (3.6) %
- TEAE Lipase increased, Any Grade, (%): (3.6) %
- TEAE Lipase increased, Grade ≥3, (%): (3.6) %
- TEAE Liver disorder, Any Grade, (%): (3.6) %
- TEAE Nausea, Any Grade, (%): (78.6) %
- TEAE Osteoporosis, Any Grade, (%): (3.6) %
- TEAE Rash, Any Grade, (%): (3.6) %
- TEAE Sinus tachycardia, Any Grade, (%): (3.6) %
- TEAE Stomatitis, Any Grade, (%): (3.6) %
- TEAE Vomiting, Any Grade, (%): (67.9) %
- TEAE White blood cell count decreased, Any Grade, (%): (7.1) %
